Values joined by “and” are separate entries in the source; they are usually repeats but may differ in a detail not shown here. Identical values can stand only once. Like-named read-outs stand apart in the source and are kept apart here.
Legend:
[1] = test system: LDH‐A; conditions: dynamic light scattering; shift from about 240 kDa; ref Jafary et al., 2019; cited from earlier work
Source text: (§1) In particular, the loss of activity related to the dissociation of tetrameric LDH‐A (Hermann et al., [1981]; Pasti et al., [2022]) prompts the search for peptides able to interfere with the quaternary structure of this enzyme. Peptides can indeed mimic a secondary structure element supposed to be a major determinant of the reciprocal interactions engaged by the subunits of an oligomeric protein (Wang et al., [2021]). Nevertheless, it should be noted that the effectivenes ...

[2] = target: dimeric LDH‐B; conditions: ref Thabault et al., 2020; read-out: K D for dimeric LDH‐B; cited from earlier work
Source text: as §1

[3] = target: T1, tetrameric LDH‐A (Homo sapiens, UniProt P00338); conditions: previous observation, cited from earlier work
T1 construct: made in house; host or cells: E. coli BL21(DE3), pET9a (NdeI/BamHI)
Source text: Accordingly, monomeric LDH‐A features a rather high K m for pyruvate and, as previously mentioned, we interpret this feature as indicative of a secondary site for pyruvate, possibly engaged in the stabilization of the assembled tetramer.

[4] = target: T1, tetrameric LDH‐A; assay: Steady-state kinetics of pyruvate reduction by tetrameric LDH-A; assay type: biochemical; conditions: variable pyruvate, 125 μM β-NADH, 2.56 nM tetramer, pH 7.5, 25°C
Description: (§2) To further characterize the catalytic action of monomeric LDH-A exposed to β-NADH and pyruvate, and therefore assembled into tetramer (cf. […] In addition, the kinetics of pyruvate reduction catalyzed by tetrameric LDH-A was assayed under the same conditions used for the monomeric enzyme. Structurally and functionally speaking, the availability of monomeric LDH-A does indeed provide an unprecedented and quite interesting tool to perform quantitative tests of the assembly of monomers into the corresponding catalytically active tetramer. […] In addition to this, the enzyme kinetic parameters were also determined testing reaction velocity as a function of β-NADH concentration, in the presence of 500 μM pyruvate. […] The continuous lines represent the best fit of the Michaelis-Menten equation to the experimental observations. […] The continuous lines represent the best fit of the Michaelis-Menten equation to the experimental observations. (c) Kinetic parameters determined by performing activity assays using monomeric or tetrameric LDH-A, at the indicated final concentrations. Under conditions of variable pyruvate concentration, β-NADH was always used at 125 μM. When reaction mixtures contained variable concentrations of the redox cofactor, pyruvate was invariably added at 500 μM. All the assays were performed at pH 7.5 (Tris-BisTris, 10 mM each.

[5] = target: T2, monomeric human LDH‐A (Homo sapiens, UniProt P00338); assay: Steady-state kinetics of pyruvate reduction by monomeric LDH-A (assembled monomers); assay type: biochemical; conditions: variable pyruvate, 125 μM β-NADH, 9.80 nM monomer, pH 7.5, 25°C
T2 construct: made in house; host or cells: E. coli BL21(DE3), pET9a (NdeI/BamHI)
Description: as §2

[6] = test system: LDH‐5; conditions: LDH-5 exposed to pH 2.5, incubated with peptide 2 min, then pH 7.4; ref Nadal‐Bufi et al., 2021; cited from earlier work
Source text: as §1, with “... || Structurally speaking, the four subunits of LDH‐5 are arranged as a binary association of dimers, with their N‐ and C‐terminal regions reciprocally engaged in dimer‐dimer interactions (Read et al., [2001]). […] Moreov ...” for “...”

## KVVYNV [hexamer of the literature targeting the C‐terminal region of LDH‐A]
[1]
  apparent LDH‐A molecular mass in the presence of peptide: ca. 100 kDa

## IYNLLK [hexamer of the literature targeting the C‐terminal region of LDH‐A]
[1]
  apparent LDH‐A molecular mass in the presence of peptide: ca. 100 kDa

## ATLKEKLI
[2]
  Kd: 1 mM

## CC(=O)C(=O)O [pyruvate]
[3]; ref Pasti et al., 2022
  K m for pyruvate, tetrameric enzyme: 252 µM
[3]; ref Pettit et al., 1981
  K m for pyruvate, tetrameric enzyme: 398 µM
[4]
  K m for pyruvate, tetrameric LDH‐A: 271 ± 40 µM and 271 µM
[5]
  K m for pyruvate, monomeric LDH‐A (assembled monomers): 561 ± 74 µM and 560 µM

## Ac-QNGISDLVK-NH2 [Peptide C1]
[6]
  action against LDH‐A (in words): ineffective

From article PMC11400633, “Peptides inhibiting the assembly of monomeric human L‐lactate dehydrogenase into catalytically active homotetramer decrease the synthesis of lactate in cultured cells” (Protein Science : A Publication of the Protein Society, 2024)
